Measured values taken from US20100068197A1, “PHARMACEUTICAL COMPOUNDS AS INHIBITORS OF CELL PROLIFERATION AND THE USE THEREOF” (Myriad Pharmaceuticals, Inc., priority 2008, published 2010).

Key:
[1] = test system: P388/ADR cell lines (overexpress the multidrug resistance pump MDR-1); experiment: Multidrug resistant cell assay, cell viability by ATP-lite; type: cell-based, murine; conditions: Mus musculus, 72 h, multidrug resistant cells overexpressing MDR-1
Source text: Cytotoxicity of compounds in multidrug resistant cells can be determined by administering compounds to cell lines that overexpress the multidrug resistance pump MDR-1 and determining the viability of the cell lines. P388/ADR cell lines are known to overexpress the multidrug resistance pump MDR-1 (also known as P-glycoprotein-1; Pgp-1).
P388/ADR cell lines are obtained from American Type Culture Collection (Manassas, Va.) and maintained in RPMI-1640 media supplemented with 10% FCS, 10 units/mL penicillin and streptomycin, 2 mM Glutamax and 1 mM sodium pyruvate (Invitrogen Corporation, Carlsbad, Calif.). For compound testing, cells are plated in 96 well dishes at a concentration of 1.5×10^4 cells/well. Cells are allowed to adhere to the plate overnight and then incubated with compounds at final concentrations ranging from 0.13 nM to 10 μM for 72 hours. Cell viability is then assessed using the ATP-lite reagent (Perkin Elmer, Foster City, Calif.). Plates are read on a Wallac Topcount luminescence reader (Perkin Elmer, Foster City, Calif.) and the results graphed in Prism software (Graphpad Software, Inc., San Diego, Calif.). Non-linear regression with variable slope analysis is performed to obtain IC50 concentration values.

[2] = test system: P388 murine leukemia cell line; experiment: P388 cytotoxicity, cellular viability by ATP-Lite; type: cell-based; conditions: Mus musculus, P388, 72 h, compound concentration required to inhibit growth by 50%, intracellular ATP
Method: A P388 murine leukemia cell line was obtained from NCI, Frederick, Md. P388 cells were cultured in RPMI-1640 supplemented with 10% fetal bovine serum, 2 mM Glutamax, 1 mM sodium pyruvate, 0.1 mM non-essential amino acids and 10 mM HEPES. Cells were grown at 37° C. in a humidified 5% CO2 atmosphere. Exponentially growing P388 cells were plated at 5,000 cells/well in a 96-well flat-bottomed microtiter plate (Corning, Costar #3595). […] Cellular viability was determined 72 hours later by measuring intracellular ATP with ATP-Lite assay system. The effect of compounds on cell viability was calculated by comparing the ATP levels of cells exposed to test compound with those of cells exposed to DMSO. A semi-log plot of relative ATP levels versus compound concentration was used to calculate the compound concentration required to inhibit growth by 50% (IC50). Data was analyzed by Prism software (GraphPad; San Diego, Calif.) by fitting it to a sigmoidal dose response curve.

Row | SMILES | IC50 [1] [nM] | IC50 [2] [nM]
1 | CCOC(=O)C(Nc1nc(N(C)c2ccc(OC)cc2)c2ccccc2n1)C(C)C (stereo not shown) [Example 32, 2-{4-[(4-Methoxy-phenyl)-methyl-amino]-quinazolin-2-ylamino}-3-methyl-butyric acid ethyl ester] | 300 | 240
2 | COc1ccc(N(C)c2nc(NCCOC(=O)[C@@H](N)CC(N)=O)nc3ccccc23)cc1 [Example 33, (S)-2-Amino-succinamic acid 2-{4-[(4-methoxy-phenyl)-methyl-amino]-quinazolin-2-ylamino}-ethyl ester] | 18 | 17
3 | COC(=O)[C@H](Cc1ccc(O)cc1)Nc1nc(N(C)c2ccc(OC)cc2)c2ccccc2n1 [Example 34, (S)-3-(4-Hydroxy-phenyl)-2-{4-[(4-methoxy-phenyl)-methyl-amino]-quinazolin-2-ylamino}-propionic acid methyl ester] | 43 | 36
4 | CNC(=O)NCCNc1nc(N(C)c2ccc(OC)cc2)c2cc(OC)ccc2n1 [Example 37, 1-(2-{6-Methoxy-4-[(4-methoxy-phenyl)-methyl-amino]-quinazolin-2-ylamino}-ethyl)-3-methyl-urea] | 6600 | 4700
5 | COc1ccc(N(C)c2nc(NCCNC(N)=O)nc3ccccc23)cc1 [Example 40, (2-{4-[(4-Methoxy-phenyl)-methyl-amino]-quinazolin-2-ylamino}-ethyl)-urea] | 600 | 500
6 | COc1ccc(N(C)c2nc(NCCNC(=O)CN)nc3ccccc23)cc1 [Example 41, 2-Amino-N-(2-{4-[(4-methoxy-phenyl)-methyl-amino]-quinazolin-2-ylamino}-ethyl)-acetamide] | 5300 | 1700
7 | COc1ccc(N(C)c2nc(NCC(O)CNc3nc(N(C)c4ccc(OC)cc4)c4ccccc4n3)nc3ccccc23)cc1 [Example 42, 1,3-Bis-{4-[(4-methoxy-phenyl)-methyl-amino]-quinazolin-2-ylamino}-propan-2-ol] | 880 | 680
8 | COc1ccc(N(C)c2nc(CNC(=O)Oc3ccccc3)nc3ccc(F)cc23)cc1 [Example 43, {6-Fluoro-4-[(4-methoxy-phenyl)-methyl-amino]-quinazolin-2-ylmethyl}-carbamic acid phenyl ester] | 5.7 | 7.2
9 | COc1ccc(N(C)c2nc(CNC(=O)OCc3ccccc3)nc3ccccc23)cc1 [Example 47, {4-[(4-Methoxy-phenyl)-methyl-amino]-quinazolin-2-ylmethyl}-carbamic acid benzyl ester] | 27 | 23
10 | COc1ccc(N(C)c2nc(CNC(=O)OC(COC(C)=O)COC(C)=O)nc3ccccc23)cc1 [Example 55, Acetic acid 3-acetoxy-2-{4-[(4-methoxy-phenyl)-methyl-amino]-quinazolin-2-ylmethylcarbamoyloxy}-propyl ester] | 450 | 330

Continued by falling IC50 [1], values first:

Row | IC50 [1] [nM] | SMILES | IC50 [2] [nM]
11 | 1800 | COc1ccc(N(C)c2nc(CNS(=O)(=O)c3ccc(OC)cc3)nc3ccccc23)cc1 [Example 45, 4-Methoxy-N-{4-[(4-methoxy-phenyl)-methyl-amino]-quinazolin-2-ylmethyl}-benzenesulfonamide] | 1700
12 | 1100 | COc1ccc(N(C)c2nc(NCCNC(=O)CNC(=O)OC(C)(C)C)nc3ccccc23)cc1 [Example 31, [(2-{4-[(4-Methoxy-phenyl)-methyl-amino]-quinazolin-2-ylamino}-ethylcarbamoyl)-methyl]-carbamic acid tert-butyl ester] | 1300
13 | 970 | COc1ccc(N(C)c2nc(CNC(=O)[C@H](CC(N)=O)NC(=O)OC(C)(C)C)nc3ccccc23)cc1 [Example 51, [(S)-2-Carbamoyl-1-({4-[(4-methoxy-phenyl)-methyl-amino]-quinazolin-2-ylmethyl}-carbamoyl)-ethyl]-carbamic acid tent-butyl ester] | 620
14 | 700 | COc1ccc(N(C)c2nc(N[C@@H](C)C(=O)O)nc3ccccc23)cc1 [Example 36, (S)-2-{4-[(4-Methoxy-phenyl)-methyl-amino]-quinazolin-2-ylamino}-propionic acid] | 780
15 | 680 | COc1ccc(N(C)c2nc(CNC(=O)[C@@H](C)NC(=O)OC(C)(C)C)nc3ccccc23)cc1 [Example 53, [(R)-1-({4-[(4-Methoxy-phenyl)-methyl-amino]-quinazolin-2-ylmethyl}-carbamoyl)-ethyl]-carbamic acid tert-butyl ester] | 457
16 | 240 | COc1ccc(N(C)c2nc(NCCOC(=O)[C@H](N)Cc3c[nH]c4ccccc34)nc3ccccc23)cc1 [Example 35, (R)-2-Amino-3-(1H-indol-3-yl)-propionic acid 2-{4-[(4-methoxy-phenyl)-methyl-amino]-quinazolin-2-ylamino}-ethyl ester] | 220
17 | 190 | COc1ccc(N(C)c2nc(CNC(=O)[C@H](C)NC(=O)OC(C)(C)C)nc3ccccc23)cc1 [Example 50, [(S)-1-({4-[(4-Methoxy-phenyl)-methyl-amino]-quinazolin-2-ylmethyl}-carbamoyl)-ethyl]-carbamic acid tent-butyl ester] | 180
18 | 160 | COC(=O)NCCNc1nc(N(C)c2ccc(OC)cc2)c2cc(C)ccc2n1 [Example 30, (2-{4-[(4-Methoxy-phenyl)-methyl-amino]-6-methyl-quinazolin-2-ylamino}-ethyl)-carbamic acid methyl ester] | 85
19 | 83 | COc1ccc(N(C)c2nc(NCCCN(C)c3nc(N(C)c4ccc(OC)cc4)c4ccccc4n3)nc3ccccc23)cc1 [Example 48, 3-{4-[(4-Methoxy-phenyl)-methyl-amino]-quinazolin-2-ylamino}-1-({4-[(4-methoxy-phenyl)-methyl-amino]-quinazolin-2-yl}-methyl-amino)-propane] | 70
20 | 76 | COc1ccc(N(C)c2nc(CN(CCCO)Cc3nc(N(C)c4ccc(OC)cc4)c4ccccc4n3)nc3ccccc23)cc1 [Example 54, 3-(Bis-{4-[(4-methoxy-phenyl)-methyl-amino]-quinazolin-2-ylmethyl}-amino)-propan-1-ol] | 64
21 | 57 | COc1ccc(N(C)c2nc(NCC(O)CN)nc3ccccc23)cc1 (stereo not shown) [Example 44, 1-Amino-3-{4-[(4-methoxy-phenyl)-methyl-amino]-quinazolin-2-ylamino}-propan-2-ol] | 37
22 | 53 | COC(=O)NCCNc1nc(N(C)c2ccc(OC)cc2)c2ccccc2n1 [Example 38, (2-{4-[(4-Methoxy-phenyl)-methyl-amino]-quinazolin-2-ylamino}-ethyl)-carbamic acid methyl ester] | 19
23 | 13 | COc1ccc(N(C)c2nc(CNC(=O)OC(C)OC(=O)C(C)C)nc3ccccc23)cc1 (stereo not shown) [Example 49, Isobutyric acid 1-{4-[(4-methoxy-phenyl)-methyl-amino]-quinazolin-2-ylmethylcarbamoyloxy}-ethyl ester] | 5.5
